Assay [1] deals with in vitro translation system of Kluyveromyces marxianus. In kind it is biochemical. The following applies: K. marxianus extract, rebuttal letter. The source says: lactone produced by Pseudomonas fluorescens. Taxonomy, fermentation and biological properties. The Journal of antibiotics 37, 802-803 (1984).
28 Kumar, P. et al. l-Threonine Transaldolase Activity Is Enabled by a Persistent Catalytic Intermediate. ACS chemical biology 16, 86-95 (2021).
29 Schaffer, J. E., Reck, M. R., Prasad, N. K. & Wencewicz, T. A. beta-Lactone formation during product release from a nonribosomal peptide synthetase. Nat Chem Biol 13, […]
30 Scott, T. A., Heine, D., Qin, Z. & Wilkinson, B. An L-threonine transaldolase is required for L-threo-beta-hydroxy-alpha-amino acid assembly during obafluorin biosynthesis. Nature communications 8, 15935 (2017).
31 Kreitler, D. F., Gemmell, E. M., Schaffer, J. E., Wencewicz, T. A. & Gulick, A. M. The structural basis of N-acyl-alpha-amino-beta-lactone formation catalyzed by a nonribosomal peptide synthetase. Nature communications 10, 3432 (2019).
32 Jones, M. A. et al. Discovery of L-threonine transaldolases for enhanced biosynthesis of beta-hydroxylated amino acids. Communications biology 6, 929 (2023).
33 Batey, S. F. D. et al. The catechol moiety of obafluorin is essential for antibacterial
34 Qiao, H. et al. Tyrosine-targeted covalent inhibition of a tRNA synthetase aided by zinc ion. Communications biology 6, 107 (2023).
Whether OB has inhibitory activity against eukaryotic ThrRS is also a great question. […]

A further assay deals with T1, EcThrRS_A316N (Escherichia coli, UniProt P0A8M3, A316N).
T1 construct: The E. coli ThrRS (residues 242-642, Supplementary Note 1) wild type; 6xHis (C); made in house; host or cells: E. coli BL21 (DE3)
T1 sequence (P0A8M3 242-642 A316N): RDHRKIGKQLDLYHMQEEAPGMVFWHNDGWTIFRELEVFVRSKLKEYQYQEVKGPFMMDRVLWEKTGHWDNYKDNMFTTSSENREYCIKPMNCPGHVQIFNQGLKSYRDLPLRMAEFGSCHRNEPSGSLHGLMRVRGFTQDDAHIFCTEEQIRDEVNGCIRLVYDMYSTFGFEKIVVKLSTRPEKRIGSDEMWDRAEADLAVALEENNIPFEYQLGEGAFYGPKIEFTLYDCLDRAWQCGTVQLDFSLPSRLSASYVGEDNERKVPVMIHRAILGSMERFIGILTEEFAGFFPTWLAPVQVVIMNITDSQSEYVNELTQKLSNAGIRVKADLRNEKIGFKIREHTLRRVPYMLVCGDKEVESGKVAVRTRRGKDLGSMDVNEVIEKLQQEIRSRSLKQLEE
Description: Thermal shift assay (TSA). Type of assay: binding. How it is done: (§1) The EcThrRS_WT and L489M/G463S/G463S_Q484A/G463A/A316N mutant proteins, ObaO_WT and ObaO_S464G mutant proteins were prepared at 2 μM in buffer containing 25 mM Tris-HCl pH 7.5, 200 mM NaCl, and 20 μM OB (GlpBio, US) or BN (GlpBio, US) or ddH2O in equal volumes since the compounds were diluted with ddH2O to 1 mM as stocks. […] SYPRO orange dye (Sigma, USA) was diluted in assay buffer containing 25 mM Tris-HCl pH 7.5 and 200 mM NaCl to a 40× concentration, and was added to the mixture to a final 4× concentration. Aliquots (20 μL) were added to a 96-well PCR plate. After complete mixing, the final solutions were heated from 25 to 95 °C at a rate of 0.015 °C/s, and fluorescence signals were monitored by QuantStudio 3 (Applied Biosystems by Thermo Fisher Scientific, USA). The melting temperature (Tm) was calculated through a previously established method[56],[57].

The target of another assay is T2, EcThrRS_L489M (Escherichia coli, UniProt P0A8M3, L489M).
T2 construct: The E. coli ThrRS (residues 242-642, Supplementary Note 1) wild type; 6xHis (C); made in house; host or cells: E. coli BL21 (DE3)
T2 sequence (P0A8M3 242-642 L489M): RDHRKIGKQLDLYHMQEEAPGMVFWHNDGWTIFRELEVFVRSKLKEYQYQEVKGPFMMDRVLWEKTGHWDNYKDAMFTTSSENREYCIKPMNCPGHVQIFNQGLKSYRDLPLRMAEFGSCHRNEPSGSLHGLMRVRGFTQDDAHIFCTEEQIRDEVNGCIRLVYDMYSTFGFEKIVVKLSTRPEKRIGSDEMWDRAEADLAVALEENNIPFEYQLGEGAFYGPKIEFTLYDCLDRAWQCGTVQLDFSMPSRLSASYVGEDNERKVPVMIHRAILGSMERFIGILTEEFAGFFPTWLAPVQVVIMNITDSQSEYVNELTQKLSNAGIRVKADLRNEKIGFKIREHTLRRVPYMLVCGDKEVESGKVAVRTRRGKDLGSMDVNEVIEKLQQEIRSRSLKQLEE
The assay is described as follows: Thermal shift assay (TSA). In kind it is binding. How it is done:
as §1

For the next assay, the target named is T3, EcThrRS_G463S (Escherichia coli, UniProt P0A8M3, G463S).
T3 construct: The E. coli ThrRS (residues 242-642, Supplementary Note 1) wild type; 6xHis (C); made in house; host or cells: E. coli BL21 (DE3)
T3 sequence (P0A8M3 242-642 G463S): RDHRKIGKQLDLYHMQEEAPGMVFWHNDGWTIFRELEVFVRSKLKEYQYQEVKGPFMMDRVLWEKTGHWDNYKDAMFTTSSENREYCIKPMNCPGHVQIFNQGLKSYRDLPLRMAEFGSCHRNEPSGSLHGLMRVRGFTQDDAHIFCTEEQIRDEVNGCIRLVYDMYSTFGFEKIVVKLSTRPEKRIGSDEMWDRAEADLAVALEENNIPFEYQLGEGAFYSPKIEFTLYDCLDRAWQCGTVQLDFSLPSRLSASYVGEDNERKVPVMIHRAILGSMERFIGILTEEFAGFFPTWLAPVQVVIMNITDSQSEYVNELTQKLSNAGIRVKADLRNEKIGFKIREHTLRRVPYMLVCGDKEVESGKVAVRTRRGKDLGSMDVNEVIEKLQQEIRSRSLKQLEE
The assay is described as follows: Thermal shift assay (TSA). Type of assay: binding. On the procedure:
as §1

A further assay deals with T4, EcThrRS_G463A (Escherichia coli, UniProt P0A8M3, G463A).
T4 construct: The E. coli ThrRS (residues 242-642, Supplementary Note 1) wild type; 6xHis (C); made in house; host or cells: E. coli BL21 (DE3)
T4 sequence (P0A8M3 242-642 G463A): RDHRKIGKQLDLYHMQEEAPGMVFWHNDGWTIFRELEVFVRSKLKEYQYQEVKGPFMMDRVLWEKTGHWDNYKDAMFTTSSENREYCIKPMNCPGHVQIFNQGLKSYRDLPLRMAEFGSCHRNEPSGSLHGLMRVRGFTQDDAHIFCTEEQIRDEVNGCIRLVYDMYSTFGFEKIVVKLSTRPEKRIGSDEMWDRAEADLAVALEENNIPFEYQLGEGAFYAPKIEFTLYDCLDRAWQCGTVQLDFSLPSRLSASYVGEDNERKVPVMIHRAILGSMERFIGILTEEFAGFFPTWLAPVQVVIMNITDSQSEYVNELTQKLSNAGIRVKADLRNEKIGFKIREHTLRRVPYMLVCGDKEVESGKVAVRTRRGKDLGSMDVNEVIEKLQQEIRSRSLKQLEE
The assay is described as follows: Thermal shift assay (TSA). Type of assay: binding. On the procedure: as §1

Another assay has as its target T5, EcThrRS_G463S_Q484A (Escherichia coli, UniProt P0A8M3, G463S/Q484A).
T5 construct: The E. coli ThrRS (residues 242-642, Supplementary Note 1) wild type; 6xHis (C); made in house; host or cells: E. coli BL21 (DE3)
Description: Thermal shift assay (TSA). In kind it is binding. How it is done:
as §1

For the next assay, the system named is ObaO_WT. The assay is described as follows: Thermal shift assay (TSA). In kind it is binding, Pseudomonas fluorescens. On the procedure: as §1
For another assay, the system named is ObaO_S464G. The assay is described as follows: Thermal shift assay (TSA). Type of assay: binding, Pseudomonas fluorescens. How it is done: as §1
The mark [2] stands for this setting: 2 μM protein, 20 μM compound, mean n = 4, read-out: ΔTm (increase of Tm).
The mark [3] stands for this setting: 2 μM protein, 20 μM compound, mean n = 4.

Structures are written as SMILES. Values joined by “and” are separate entries in the source; they are usually repeats but may differ in a detail not shown here. Identical values can stand only once. Like-named read-outs stand apart in the source and are kept apart here.

What is called IC50 is the concentration needed to halve the response being measured. Usually ΔTm stands for the change in melting temperature against a reference sample.

T5 sequence (P0A8M3 242-642 G463S/Q484A): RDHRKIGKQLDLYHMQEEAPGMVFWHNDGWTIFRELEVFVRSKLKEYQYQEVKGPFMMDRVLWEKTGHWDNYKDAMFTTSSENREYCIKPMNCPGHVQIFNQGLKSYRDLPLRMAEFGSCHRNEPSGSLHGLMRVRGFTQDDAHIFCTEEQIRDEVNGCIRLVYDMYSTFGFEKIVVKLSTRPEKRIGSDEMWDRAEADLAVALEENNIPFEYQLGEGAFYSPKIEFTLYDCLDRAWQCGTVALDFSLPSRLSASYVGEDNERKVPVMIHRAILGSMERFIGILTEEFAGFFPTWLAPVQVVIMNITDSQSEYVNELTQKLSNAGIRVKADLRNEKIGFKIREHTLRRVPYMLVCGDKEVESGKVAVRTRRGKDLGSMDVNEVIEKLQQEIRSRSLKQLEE

Consider `O=C(N[C@@H]1C(=O)O[C@@H]1Cc1ccc([N+](=O)[O-])cc1)c1cccc(O)c1O` [OB, Obafluorin], for which the IC50 in assay [1] is roughly 9 µM. Moreover, the ΔTm at 20 µM on EcThrRS_A316N (setting [2]) came to 33.4 °C; at EcThrRS_A316N (source data sheet Fig.S4a, ThrRS_A316N, read-out: ΔTm, single replicates), 33.4 °C; on EcThrRS_L489M (setting [2]), 22.6 °C; on EcThrRS_L489M (source data sheet Fig.2a, ThrRS_L489M, read-out: ΔTm, single replicates), 23 °C; on EcThrRS_G463S (setting [2]) it was 13.3 °C; at EcThrRS_G463S (source data sheet Fig.2a, ThrRS_G463S, read-out: ΔTm, single replicates), 16.1 °C. Moreover, the ΔTm at 20 µM at EcThrRS_G463A (setting [2]) was found to be 19.5 °C; at EcThrRS_G463A (source data sheet Fig.5a, ThrRS_G463A, read-out: ΔTm, single replicates), 20.4 °C; at EcThrRS_G463S_Q484A (setting [2]), 17.2 °C; at EcThrRS_G463S_Q484A (source data sheet Fig.3c, ThrRS_G463S_Q484A, read-out: ΔTm, single replicates) it was 17.5 °C. Also, the “ΔTm less than that of EcThrRS_WT” value on EcThrRS_G463A (EcThrRS_G463A vs WT, same compound) is 14.0 °C. Also, the “ΔTm less than that increased by 36j” value at EcThrRS_G463A (difference OB vs 36j on EcThrRS_G463A) turned out to be 1.3 °C. At EcThrRS_G463S_Q484A (difference OB vs 36j on EcThrRS_G463S_Q484A), the “ΔTm less than the effect of 36j” value was 10 °C. Moreover, the figures for the “ΔTm (increase of Tm)” value with ObaO_WT (setting [3]) and in the assay on ObaO_S464G (setting [3]) were 3.2 °C and 14.1 °C, respectively. The “ΔTm, single replicates” value in the assay on ObaO_WT (source data sheet Fig.S11a, ObaO_WT, in °C (unit assumed)) is 3.257 and 4.712 and 2.142 and 2.576; with ObaO_S464G (source data sheet Fig.S11a, ObaO_S464G, in °C (unit assumed)), 14.753 and 14.195 and 14.134 and 13.328.

The record behind these values is publication PMC11252418, “Specific glycine-dependent enzyme motion determines the potency of conformation selective inhibitors of threonyl-tRNA synthetase” (Communications Biology, 2024).
